Measured values published in US20220062436A1, “DRUG-PROTEIN CONJUGATES” (priority 2012, published 2022).
Square brackets hold non-standard residues; d marks the D form. Peptide text beside a SMILES is read from it. * marks the point of attachment. Dolaproine = CO[C@@H]([C@@H]1CCCN1)[C@@H](C)C(=O)O; Dil = CC[C@H](C)[C@H](NC)[C@@H](CC(=O)O)OC; X1 = C[C@@H](N*)[C@@H](O)c1ccccc1; NMeV = CN[C@H](C(=O)O)C(C)C

Tests used:
[1] = tested on: HER2-positive BT-474 cells; assay: Cell viability assay (CellTiter Glo luminescence), inhibition of cell growth; format: cell-based; settings: 96 h incubation
Protocol: (§1) The in vitro efficacy of the mAb-reagent 1 conjugates were determined by measuring the inhibitory effect on cell growth of HER-2 receptor over-expressing cancer cell lines.
(§2) Loss of tumour cell viability following treatment with cytotoxic drugs or ADCs in vitro can be measured by growing cell lines in the presence of increasing concentrations of drugs or ADCs and quantifying the loss of proliferation or metabolic activity using CellTiter Glo® Luminescence reagent (Promega Corp. Technical Bulletin TB288; Lewis Phillips G. D, Cancer Res 2008; 68:9280-9290). The protocol describes cell seeding, drug treatment and determination of the cell viability in reference to untreated cells based on ATP synthesis, which is directly related to the number of cells present in the well.
(§3) HER2-positive SK-BR-3 and BT-474 cells were trypsinised with 3 mL Trypsin EDTA for 5-15 min. Trypsinisation was stopped by adding 10 mL complete medium, and cells were transferred to a 50 mL Falcon tube. Cells were counted using a Neubauer haemocytometer and adjusted to a cell density of 1×10^5/mL for BT-474 and 5×10^4/mL for SK-BR-3 respectively. Cells were seeded (100 μL/well) into poly-D-lysine coated opaque-walled 96-well plates and incubated for 24 h at 37° C. and 5% CO2. Tumour cell lines SK-BR-3 (ATCC-HTB-30) and BT-474 (ATCC-HTB-20) were purchased from the American Type Culture Collection. SK-BR-3 cells were grown in McCoy's 5A medium (Life Technologies®), 10% fetal bovine serum, 100 u/mL Penicillin and 100 μg/mL Streptomycin. BT-474 cells were grown in DMEM/F-12 medium (Life Technologies®), 10% fetal bovine serum, 100 u/mL Penicillin and 100 μg/mL Streptomycin. […]
(§4) The cell viability assay was carried out using the Cell-Titer Glo® Luminescence reagent, as described by the manufacturer's instructions, (Promega Corp. Technical Bulletin TB288; Lewis Phillips G. D, Cancer Res 2008; 68:9280-9290). […] Luminescence was recorded using a plate reader (e.g. MD Spectramax M3 plate reader), and data subsequently analysed using a four parameter non-linear regression model.
(§5) The results are shown in FIG. 6, which illustrates cell viability responses to treatment with either antibody-reagent 1 conjugate within SKBR-3 or BT-474 cells. Viability is expressed as % of untreated cells. […]
(§6) The in vitro efficacy of the reagent 6 and reagent 9 antibody conjugates prepared in Example 12 were determined by measuring the inhibitory effect on cell growth of HER-2 receptor over-expressing cancer cell lines by the method of Example 9.
(§7) The results are shown in FIG. 7, which illustrates cell viability responses to treatment with either reagent 6 conjugate or reagent 9 conjugate within SKBR-3 or BT-474 cells. Viability is expressed as % of untreated cells. […]

[2] = tested on: HER2-positive SK-BR-3 cells; assay: as above; format: cell-based; settings: 96 h incubation
Protocol: as §1, §2, §3, §4, §5, §6, §7

Compound `CC[C@H](C)[C@@H]([C@@H](CC(=O)N1CCC[C@H]1[C@H](OC)[C@@H](C)C(=O)N[C@H](C)[C@@H](O)c1ccccc1)OC)N(C)C(=O)[C@@H](NC(=O)[C@@H](NC)C(C)C)C(C)C` [MMAE, monomethyl auristatin E] (H-[NMeV]V[Dil][Dolaproine]-X1) has an IC50 ([1]; Example 9, Table 5) of 0.75 nM, an IC50 ([1]; Example 13, Table 7) of 0.85 nM and an IC50 ([2]; Example 9, Table 5) of 0.2 nM. For the same compound, the IC50 ([2]; Example 13, Table 7) was 0.27 nM.
